Test results from patent publication US9849197B2, “Switching-type fluorescent nanoparticle probe, and fluorescent molecular imaging method using same” (KYOTO UNIVERSITY, priority 2011, dated 2017).

Assay: Change in fluorescence intensity of lactosome encapsulating fluorescent dye due to change in external environment 1
Format: physicochemical
Conditions: lactosome encapsulating 20 mol % of the dye; for fluorescence intensity in the SDS solution: 5 wt % SDS 1:1, room temperature 30 minutes; for fluorescence intensity in the BSA solution: 5 wt % albumin (BSA) 1:1, room temperature 30 minutes; for fluorescence intensity in the plasma: plasma from male ddY mice 1:1, room temperature 30 minutes
Description: In FIGS. 2(A) to 2(D), the horizontal axis represents wavelength and the vertical axis represents fluorescence intensity.

CC1(C)C(/C=C/C2=C(Cl)C(=C/C=C3/N(CCCCCC(=O)O)c4ccc5ccccc5c4C3(C)C)/CCC2)=[N+](CCO)c2ccc3ccccc3c21 [IC7-1]
recovered: fluorescence intensity in the SDS solution | fluorescence intensity in the BSA solution | fluorescence intensity in the plasma

CC1(C)C(/C=C/C=C/C=C/C=C2\N(CCCCS(=O)(=O)O)c3ccc4ccccc4c3C2(C)C)=[N+](CCCCS(=O)(=O)[O-])c2ccc3ccccc3c21 [ICG, indocyanine green]
recovered: fluorescence intensity in the SDS solution | fluorescence intensity in the BSA solution | fluorescence intensity in the plasma
